# According to patent publication US9309242B2, “Substituted pyrido[2,3-b]pyrazines as FGFR kinase inhibitors” (priority 2011, dated 2016):
# What was measured:
# [1] = molecular target: T1, Ba/F3-FGFR3-transfected cells (Homo sapiens, UniProt P22607); test: Ba/F3-FGFR3 (minus IL3) cellular proliferation assay, Alamar Blue; format: cell-based
# T1 construct: BAF3-FGFR3 (MIN IL3) pIC50; other: minus IL3
# Outline: (§1)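 Compound dilutions were dispensed first, then 20000 FGFR3-transfected Ba/F3 cells per well in serum-containing RPMI-1640 were added. After 24 h incubation at 37° C, Alamar Blue was applied for 4 h before relative fluorescence units were recorded. In the minus-IL3 format cells grow without cytokine; the other format contains 10 ng/ml murine IL3.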
# FGFR3 (h) = FGFR3 (h) (Homo sapiens, UniProt P22607); test: FGFR3 (enzymatic assay), TR-FRET; format: biochemical; conditions: read-out: FGFR 3 pIC50 (converted)
# Source text: Time-Resolved Fluorescence Resonance Energy Transfer (TR-FRET) signal (ex340 nm.
# KDR (h) = KDR (h) (Homo sapiens, UniProt P35968); test: KDR (VEGFR2) (enzymatic assay), TR-FRET; format: biochemical; conditions: read-out: VEGFR 2 (KDR) pIC50 (converted)
# Outline: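 First, kinase (150 ng/ml), Btn-Flt3 (500 nM), ATP (3 μM) and compound (1% DMSO) react 120 min at RT in pH 7.5 HEPES/6 mM MnCl2. Next, EDTA with Eu-anti-P-Tyr and SA-XL-665 stops it for 60 min. Finally, TR-FRET is read as RFU.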
# [2] = test system: Ba/F3-FGFR3-transfected cells; test: Ba/F3-FGFR3 (plus IL3) cellular proliferation assay, counterscreen with 10 ng/ml murine IL3; format: cell-based; conditions: plus IL3 (10 ng/ml murine IL3, counterscreen); read-out: BAF3-FGFR3 (PLUS IL3) pIC50 (converted)
# Outline: as §1
# [3] = test system: Ba/F3-KDR-transfected cells; test: Ba/F3-KDR (plus IL3) cellular proliferation assay, counterscreen with 10 ng/ml murine IL3; format: cell-based; conditions: plus IL3 (10 ng/ml murine IL3, counterscreen); read-out: BAF3-KDR (PLUS IL3) pIC50 (converted)
# Outline: (§2)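 Proliferation is measured as Alamar Blue relative fluorescence units following 24 h compound treatment of 20000 cells per well in 10% FBS medium. The IL3-supplemented run serves as a counterscreen under the same conditions.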
# [4] = molecular target: Ba/F3-FGFR4-transfected cells (Homo sapiens, UniProt P22455); test: Ba/F3-FGFR4 cellular proliferation assay, Alamar Blue; format: cell-based
# Outline: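 Proliferation of Ba/F3-FGFR4-transfected cells is gauged by Alamar Blue (resazurin) fluorescence after 24 hours of compound treatment in phenol red free RPMI-1640 with 10% FBS.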
# FGFR1 (h) = FGFR1 (h) (Homo sapiens, UniProt P11362); test: FGFR1 (enzymatic assay), TR-FRET; format: biochemical; conditions: read-out: FGFR 1 pIC50 (converted)
# FGFR4 (h) = FGFR4 (h) (Homo sapiens, UniProt P22455); test: FGFR4 (enzymatic assay), TR-FRET; format: biochemical; conditions: FGFR 4 pIC50, enzymatic assay
# [5] = molecular target: T2, Ba/F3-KDR-transfected cells (Homo sapiens, UniProt P35968); test: Ba/F3-KDR (minus IL3) cellular proliferation assay, Alamar Blue; format: cell-based
# T2 construct: BAF3-KDR (MIN IL3) pIC50; other: minus IL3
# Outline: as §2
# Sequence of Ba/F3-FGFR4-transfected cells (P22455 whole entry, change not shown): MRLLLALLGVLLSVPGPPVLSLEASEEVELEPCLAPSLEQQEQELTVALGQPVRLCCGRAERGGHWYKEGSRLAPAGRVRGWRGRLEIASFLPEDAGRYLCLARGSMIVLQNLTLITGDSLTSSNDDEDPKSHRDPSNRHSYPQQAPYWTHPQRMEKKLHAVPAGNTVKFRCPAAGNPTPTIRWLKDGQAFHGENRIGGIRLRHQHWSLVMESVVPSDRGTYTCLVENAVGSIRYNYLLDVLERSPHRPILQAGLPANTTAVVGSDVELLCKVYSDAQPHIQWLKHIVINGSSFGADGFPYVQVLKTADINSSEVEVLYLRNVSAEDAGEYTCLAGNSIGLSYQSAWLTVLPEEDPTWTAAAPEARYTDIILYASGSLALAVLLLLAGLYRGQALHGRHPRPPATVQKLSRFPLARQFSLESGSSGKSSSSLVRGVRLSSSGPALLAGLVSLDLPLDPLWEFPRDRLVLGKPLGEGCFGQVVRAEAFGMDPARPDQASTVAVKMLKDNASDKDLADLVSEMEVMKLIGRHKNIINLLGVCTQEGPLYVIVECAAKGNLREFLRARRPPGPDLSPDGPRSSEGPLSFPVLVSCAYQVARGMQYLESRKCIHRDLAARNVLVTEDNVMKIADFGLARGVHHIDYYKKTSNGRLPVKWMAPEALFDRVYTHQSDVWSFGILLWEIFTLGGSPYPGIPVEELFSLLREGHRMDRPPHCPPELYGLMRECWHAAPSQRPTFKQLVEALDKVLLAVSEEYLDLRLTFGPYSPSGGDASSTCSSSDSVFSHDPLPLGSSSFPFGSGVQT
# T2 sequence (P35968 whole entry, change not shown): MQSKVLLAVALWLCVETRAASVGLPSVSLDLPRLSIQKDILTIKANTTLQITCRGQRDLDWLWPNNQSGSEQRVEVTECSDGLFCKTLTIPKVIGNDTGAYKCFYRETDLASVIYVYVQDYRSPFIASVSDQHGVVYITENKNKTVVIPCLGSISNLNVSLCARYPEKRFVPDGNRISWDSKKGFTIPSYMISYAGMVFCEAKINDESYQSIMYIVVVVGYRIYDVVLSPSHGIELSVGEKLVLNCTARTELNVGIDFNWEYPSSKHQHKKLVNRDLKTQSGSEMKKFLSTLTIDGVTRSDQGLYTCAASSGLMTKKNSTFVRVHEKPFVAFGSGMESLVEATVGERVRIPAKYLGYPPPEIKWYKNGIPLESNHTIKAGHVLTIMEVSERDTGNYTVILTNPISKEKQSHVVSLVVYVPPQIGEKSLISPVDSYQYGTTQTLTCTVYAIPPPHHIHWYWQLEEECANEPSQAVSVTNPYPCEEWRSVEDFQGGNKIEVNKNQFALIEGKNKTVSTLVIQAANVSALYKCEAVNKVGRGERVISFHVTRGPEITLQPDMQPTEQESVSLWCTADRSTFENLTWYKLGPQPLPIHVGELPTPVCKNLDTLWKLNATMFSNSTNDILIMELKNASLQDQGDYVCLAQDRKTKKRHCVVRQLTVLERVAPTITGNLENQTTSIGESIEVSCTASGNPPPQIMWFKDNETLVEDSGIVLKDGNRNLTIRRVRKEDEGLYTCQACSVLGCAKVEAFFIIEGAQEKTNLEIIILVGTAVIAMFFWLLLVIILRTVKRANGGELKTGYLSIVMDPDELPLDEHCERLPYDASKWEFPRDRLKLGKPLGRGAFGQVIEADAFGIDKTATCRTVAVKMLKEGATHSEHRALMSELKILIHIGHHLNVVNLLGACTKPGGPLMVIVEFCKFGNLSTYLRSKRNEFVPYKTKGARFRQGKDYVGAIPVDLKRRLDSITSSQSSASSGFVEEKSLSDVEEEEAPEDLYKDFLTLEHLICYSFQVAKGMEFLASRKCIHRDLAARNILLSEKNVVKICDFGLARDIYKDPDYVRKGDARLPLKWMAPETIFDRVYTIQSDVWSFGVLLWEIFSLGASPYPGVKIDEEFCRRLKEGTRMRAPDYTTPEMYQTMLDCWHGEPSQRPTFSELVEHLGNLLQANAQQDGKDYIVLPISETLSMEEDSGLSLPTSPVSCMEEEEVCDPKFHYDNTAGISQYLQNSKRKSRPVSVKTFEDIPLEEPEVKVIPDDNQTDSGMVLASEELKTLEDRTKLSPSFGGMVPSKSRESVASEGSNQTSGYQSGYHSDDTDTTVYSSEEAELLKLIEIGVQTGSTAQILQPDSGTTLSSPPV
# Sequence of FGFR1 (h) (P11362 22-822): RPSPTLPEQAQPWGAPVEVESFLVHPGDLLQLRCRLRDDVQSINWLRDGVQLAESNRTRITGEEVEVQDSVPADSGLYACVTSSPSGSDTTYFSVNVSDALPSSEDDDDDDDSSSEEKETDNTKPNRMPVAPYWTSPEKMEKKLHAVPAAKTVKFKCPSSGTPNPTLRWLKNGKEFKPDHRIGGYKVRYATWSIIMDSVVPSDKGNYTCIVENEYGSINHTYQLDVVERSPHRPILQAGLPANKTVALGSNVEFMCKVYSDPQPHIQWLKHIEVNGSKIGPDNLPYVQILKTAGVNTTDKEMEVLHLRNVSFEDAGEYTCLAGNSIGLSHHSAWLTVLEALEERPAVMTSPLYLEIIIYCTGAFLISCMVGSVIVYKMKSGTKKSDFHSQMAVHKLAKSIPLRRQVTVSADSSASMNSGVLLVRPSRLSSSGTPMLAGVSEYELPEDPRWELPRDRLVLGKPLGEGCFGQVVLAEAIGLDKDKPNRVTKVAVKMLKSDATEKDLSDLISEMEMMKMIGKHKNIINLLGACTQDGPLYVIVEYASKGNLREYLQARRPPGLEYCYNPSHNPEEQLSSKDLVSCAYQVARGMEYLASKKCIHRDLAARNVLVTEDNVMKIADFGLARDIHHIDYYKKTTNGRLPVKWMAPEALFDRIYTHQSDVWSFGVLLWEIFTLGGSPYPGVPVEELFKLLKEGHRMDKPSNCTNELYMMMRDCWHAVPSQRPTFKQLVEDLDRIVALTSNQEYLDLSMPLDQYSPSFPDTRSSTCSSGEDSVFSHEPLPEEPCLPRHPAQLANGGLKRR
# Sequence of KDR (h) (P35968 20-1356): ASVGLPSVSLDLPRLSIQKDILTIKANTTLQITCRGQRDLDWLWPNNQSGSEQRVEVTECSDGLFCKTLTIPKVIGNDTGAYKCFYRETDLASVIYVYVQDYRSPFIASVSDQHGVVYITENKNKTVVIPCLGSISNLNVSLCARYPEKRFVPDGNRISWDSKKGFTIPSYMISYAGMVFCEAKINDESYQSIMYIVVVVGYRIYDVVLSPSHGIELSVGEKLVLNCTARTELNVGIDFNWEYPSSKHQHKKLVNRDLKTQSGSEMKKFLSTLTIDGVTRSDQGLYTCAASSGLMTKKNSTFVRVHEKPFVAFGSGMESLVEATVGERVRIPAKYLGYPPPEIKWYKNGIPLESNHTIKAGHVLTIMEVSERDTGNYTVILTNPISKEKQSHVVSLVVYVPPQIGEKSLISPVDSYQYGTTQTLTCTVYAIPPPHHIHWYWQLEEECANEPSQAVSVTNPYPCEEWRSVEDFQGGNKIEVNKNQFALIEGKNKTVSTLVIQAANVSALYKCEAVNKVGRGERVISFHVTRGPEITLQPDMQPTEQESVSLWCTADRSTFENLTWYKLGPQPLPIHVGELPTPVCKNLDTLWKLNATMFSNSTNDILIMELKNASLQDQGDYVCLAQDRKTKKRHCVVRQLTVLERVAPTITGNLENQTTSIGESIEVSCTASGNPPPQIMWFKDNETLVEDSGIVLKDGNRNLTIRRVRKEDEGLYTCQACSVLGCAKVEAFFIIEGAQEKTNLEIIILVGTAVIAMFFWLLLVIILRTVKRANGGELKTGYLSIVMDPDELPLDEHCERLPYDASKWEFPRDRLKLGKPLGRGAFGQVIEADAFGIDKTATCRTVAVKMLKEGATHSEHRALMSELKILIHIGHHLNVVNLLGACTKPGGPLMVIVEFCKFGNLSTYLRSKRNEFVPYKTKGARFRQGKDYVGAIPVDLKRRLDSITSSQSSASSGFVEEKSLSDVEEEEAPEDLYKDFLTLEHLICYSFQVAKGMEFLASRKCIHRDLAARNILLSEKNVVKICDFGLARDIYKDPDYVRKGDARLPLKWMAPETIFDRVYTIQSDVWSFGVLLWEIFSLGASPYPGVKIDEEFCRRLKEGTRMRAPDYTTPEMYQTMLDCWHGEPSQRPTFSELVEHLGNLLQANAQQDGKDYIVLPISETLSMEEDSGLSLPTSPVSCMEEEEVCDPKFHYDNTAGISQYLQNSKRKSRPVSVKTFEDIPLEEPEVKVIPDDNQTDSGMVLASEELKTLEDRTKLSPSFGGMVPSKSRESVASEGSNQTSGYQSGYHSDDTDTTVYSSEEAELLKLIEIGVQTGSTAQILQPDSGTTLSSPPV
# Sequence of FGFR3 (h) (P22607 23-806): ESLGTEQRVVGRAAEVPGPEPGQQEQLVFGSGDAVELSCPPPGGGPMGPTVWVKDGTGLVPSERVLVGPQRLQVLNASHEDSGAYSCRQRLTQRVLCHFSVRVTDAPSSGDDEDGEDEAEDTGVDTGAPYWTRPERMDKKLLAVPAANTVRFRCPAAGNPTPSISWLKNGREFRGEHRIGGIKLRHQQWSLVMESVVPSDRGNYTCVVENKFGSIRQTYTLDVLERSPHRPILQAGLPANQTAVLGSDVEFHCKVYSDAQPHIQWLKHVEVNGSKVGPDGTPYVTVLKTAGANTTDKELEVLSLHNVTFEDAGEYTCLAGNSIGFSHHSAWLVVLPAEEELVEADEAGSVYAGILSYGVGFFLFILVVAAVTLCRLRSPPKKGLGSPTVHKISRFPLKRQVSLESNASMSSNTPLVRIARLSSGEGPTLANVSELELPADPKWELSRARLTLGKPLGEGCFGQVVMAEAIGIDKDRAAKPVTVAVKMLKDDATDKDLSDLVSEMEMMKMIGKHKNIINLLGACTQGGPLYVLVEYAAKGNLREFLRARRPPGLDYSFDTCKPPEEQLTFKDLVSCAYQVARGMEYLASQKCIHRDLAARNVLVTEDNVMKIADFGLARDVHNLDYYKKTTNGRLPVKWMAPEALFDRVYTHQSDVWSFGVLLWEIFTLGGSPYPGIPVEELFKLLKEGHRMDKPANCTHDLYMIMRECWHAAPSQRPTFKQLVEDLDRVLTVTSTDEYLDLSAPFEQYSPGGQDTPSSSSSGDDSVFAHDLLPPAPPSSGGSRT
SMILES,BAF3-FGFR3 (MIN IL3) pIC50 [1],IC50 (FGFR3 (h)),IC50 (KDR (h)),IC50 [2],IC50 [3],BAF3-FGFR4 pIC50 [4],IC50 (FGFR1 (h)),IC50 (FGFR4 (h)),BAF3-KDR (MIN IL3) pIC50 [5]
COc1cc(OC)c(F)c(N(Cc2ncc[nH]2)c2ccc3ncc(-c4cnn(C5COC5)c4)nc3n2)c1 [Compound 253],~8.63,1.35 nM,12 nM,> 10000 nM,> 10000 nM,7.90,0.603 nM,1.91 nM,6.32
COc1cc(OC)c(F)c(N(CC(=O)NC(C)C)c2ccc3ncc(-c4cnn(C)c4)nc3n2)c1 [Compound 249],6.83,7.59 nM,224 nM,> 10000 nM,> 10000 nM,6.00,3.89 nM,33.1 nM,5.09
COc1cc(OC)cc(N(CC(O)COC(C)C)c2ccc3ncc(-c4cnn(CC(O)COC(C)C)c4)nc3n2)c1 (stereo not drawn) [Compound 250],~7.09,4.79 nM,120 nM,> 10000 nM,> 10000 nM,6.37,4.17 nM,8.71 nM,5.16
COc1cc(OC)c(F)c(N(CCS(C)(=O)=O)c2ccc3ncc(-c4cnn(CCS(C)(=O)=O)c4)nc3n2)c1 [Compound 266],6.35,1.7 nM,34.7 nM,> 10000 nM,> 10000 nM,5.78,1.45 nM,4.27 nM,<5
"COc1cc(OC)c(F)c(N(CC2CC2)c2ccc3ncc(-c4cnn(C)c4)nc3n2)c1F (single isomer, unassigned) [Compound 268]",7.74,1.86 nM,12 nM,> 10000 nM,> 10000 nM,6.90,0.912 nM,2.57 nM,5.55
COc1cc(OC)c(F)c(N(Cc2ncc[nH]2)c2ccc3ncc(-c4cnn(CCCN)c4)nc3n2)c1 [Compound 295],8.17,1.29 nM,9.33 nM,> 10000 nM,> 10000 nM,7.61,0.562 nM,2.4 nM,6.45
COc1cc(OC)c(F)c(N(CC(C)(C)O)c2ccc3ncc(-c4cnn(C)c4)nc3n2)c1F [Compound 278],7.73,2.95 nM,15.8 nM,> 10000 nM,> 10000 nM,7.11,1.62 nM,4.9 nM,5.92
COc1cc(OC)c(F)c(N(Cc2noc(C)n2)c2ccc3ncc(-c4cnn(C)c4)nc3n2)c1 [Compound 297],7.69,1.7 nM,16.2 nM,> 10000 nM,> 10000 nM,6.99,0.794 nM,3.02 nM,6.08
COc1cc(OC)cc(N(CCNC2COC2)c2ccc3ncc(-c4cnn(C)c4)nc3n2)c1 [Compound 290],7.06,4.47 nM,55 nM,> 10000 nM,> 10000 nM,6.32,3.55 nM,12.9 nM,5.81
COc1cc(OC)c(C)c(N(Cc2ncc[nH]2)c2ccc3ncc(-c4cnn(C)c4)nc3n2)c1 [Compound 273],~8.60,3.16 nM,20.4 nM,> 10000 nM,> 10000 nM,7.60,1.15 nM,2.82 nM,6.44
COc1cc(OC)c(F)c(N(CC2CCC(=O)N2)c2ccc3ncc(-c4cnn(CC(C)(C)O)c4)nc3n2)c1 (stereo not drawn) [Compound 285],6.84,2.75 nM,35.5 nM,> 10000 nM,> 10000 nM,6.12,2.34 nM,7.24 nM,5.36
"COc1cc(OC)c(F)c(/N=c2\ccc3ncc(-c4cnn(C)c4)nc3n2CC2CC2)c1F (single isomer, unassigned) [Compound 267]",8.16,2.4 nM,12.6 nM,> 10000 nM,> 10000 nM,7.55,0.977 nM,1.48 nM,6.37
COc1cc(OC)c(F)c(N(Cc2ncc[nH]2)c2ccc3ncc(N4CCOCC4)nc3n2)c1 [Compound 291],7.73,1.2 nM,89.1 nM,> 10000 nM,> 10000 nM,7.08,0.871 nM,3.39 nM,5.68
COc1cc(/N=c2\ccc3ncc(-c4cnn(C)c4)nc3n2CC2CC(O)C(=O)N2)c(F)c(OC)c1 (stereo not drawn) [Compound 270],7.00,1.1 nM,6.46 nM,> 10000 nM,> 10000 nM,6.40,0.776 nM,2.29 nM,5.56
"COc1cc(OC)c(F)c(N(CC(O)COC(C)C)c2ccc3ncc(-c4cnn(CC(O)COC(C)C)c4)nc3n2)c1 (single isomer, unassigned) [Compound 252]",7.42,4.07 nM,49 nM,> 10000 nM,> 10000 nM,6.95,1.95 nM,5.13 nM,5.67
COc1cc(OC)c(F)c(N(CC(=O)N2CCNCC2)c2ccc3ncc(-c4cnn(C)c4)nc3n2)c1 [Compound 262],~6.17,17.4 nM,240 nM,> 10000 nM,> 10000 nM,5.63,7.24 nM,55 nM,5.06
